The source of these data is PubChem BioAssay (NCI).

“And” between values parts separate entries of the source, which are not always exact repeats. Identical values can stand only once.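 Test compounds were applied to cells in 96-well plates for 48 hours at 5 doses. GI50 is the concentration that inhibits growth by half. TGI is the concentration that stops growth completely.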

Experiment in all cases: NCI anticancer screen, dose series, 48 h
Experiment [1] deals with ACHN renal.
In experiment [2] the test system is HCT-15 colon.
The test system of experiment [3] is NCI-H460 lung.
Experiment [4] has as its system OVCAR-3 ovarian.
The test system of experiment [5] is OVCAR-8 ovarian.
The test system of experiment [6] is PC-3 prostate.
The subject of experiment [7] is SF-539 CNS.
The subject of experiment [8] is SK-OV-3 ovarian.
The test system of experiment [9] is TK-10 renal.
The subject of experiment [10] is UACC-257 melanoma.

Take `CN1CCN(C(=O)COc2ccc(C34CC5CC(CC(C5)C3)C4)cc2)CC1`: the GI50 was 17.2 µM in [1]; 7.33 µM in experiment [2]; 13.2 µM in experiment [3]; 13.4 µM in experiment [4]; 18.2 µM in experiment [5]; 4.87 µM in experiment [6]. Besides, the GI50 in experiment [7] is 12.7 µM; in [8], 14 µM; in [9], 16.7 µM; in experiment [10], 12.8 µM. In addition, the TGI in experiment [1] is 39.5 µM; in [2], 21 µM; in [3] it was 27.5 µM; in [4], 27.3 µM; in experiment [5], 54.1 µM; in experiment [6], 21.6 µM. Besides, the TGI was 25.9 µM in [7], 30.4 µM in experiment [8], 33.2 µM in experiment [9] and 31.9 µM in [10].
As for `CC1(C)[C@@H](NOCCCN)CC[C@]2(C)[C@H]3C(=O)C=C4[C@@H]5C[C@](C)(C(=O)O)CC[C@]5(C)CC[C@@]4(C)[C@]3(C)CC[C@@H]12`, the GI50 in experiment [1] was 7.87 µM; in [2], 3.6 µM; in experiment [3], 8.29 µM; in experiment [4] it was 4.17 µM; in experiment [5], 6.18 µM; in [6], 3.66 µM. The GI50 in experiment [7] was 11.9 µM; in [8], 17.8 µM; in experiment [9] it was 16.7 µM; in experiment [10] it was 6.81 µM. In addition, the TGI is 21.2 µM in experiment [1]; over 100 µM in [2]; 46 µM in [3]; 19.7 µM in experiment [4]; 28.7 µM in experiment [5]; 19 µM in experiment [6]. Moreover, the TGI was 24.2 µM in [7], 67 µM in experiment [8], 36 µM in [9] and 32.3 µM in experiment [10].
On to `COc1cc(-c2nc3sccn3c2-c2ccnc(NCCNS(=O)(=O)c3ccc(F)cc3)n2)ccc1F`, for which the GI50 is 1.53 µM in [1]; 2.33 µM in experiment [2]; 2.44 µM in experiment [3]; 3.23 µM in [4]; 2.12 µM in experiment [5]; 0.946 µM in experiment [6]. The GI50 in experiment [7] was 4.86 µM; in experiment [8], 3.26 µM; in experiment [9] it was 6.27 µM; in [10], 3.88 µM. The TGI in [1], in experiment [2], in experiment [3], in experiment [4], in experiment [5] and in experiment [6] was over 100 µM throughout. In addition, the TGI in [7], in experiment [8], in experiment [9] and in experiment [10] was over 100 µM throughout.
As for `COc1ccccc1NC(=O)c1cc2cc(Br)ccc2cc1O`, the GI50 in experiment [1] was 2.52 µM; in [2] it was 2.37 µM; in experiment [3] it was 2.15 µM; in experiment [4], 2.48 µM; in experiment [5], 3 µM; in experiment [6], 1.83 µM. Further, the GI50 in experiment [7] was 2.34 µM; in experiment [8], 1.75 µM; in experiment [9], 4.31 µM; in experiment [10], 1.97 µM. The TGI in [1] was found to be 7.21 µM; in [2], 8.54 µM; in [3], 6.77 µM; in [4], 9.06 µM; in experiment [5], 14.7 µM; in experiment [6], 6.79 µM. Further, the TGI was 7.34 µM in [7], 6.08 µM in experiment [8], 15.3 µM in [9] and 5.3 µM in experiment [10].
Take `COC(=O)[C@]12CC[C@@H](C)[C@H](C)[C@@H]1C1=CC[C@@H]3[C@@]4(C)C[C@@H](O)[C@H](O)[C@@](C)(CO)[C@@H]4[C@H](O)C[C@@]3(C)[C@]1(C)CC2`: the GI50 in [1] is 7.8 µM; in experiment [2], 12.5 µM; in [3], 14.8 µM; in experiment [4], 12.8 µM; in experiment [5], 17.7 µM; in [6], 3.63 µM. In addition, the GI50 in experiment [7] is 14 µM; in [8], 19.4 µM; in [9], 16.8 µM; in experiment [10], 16.8 µM. For the same compound, the TGI in experiment [1] was 21.6 µM; in experiment [2], 28.4 µM; in experiment [3], 33.6 µM; in [4] it was 26 µM; in experiment [5], 41.1 µM; in experiment [6] it was 15.6 µM. For the same compound, the TGI stood at 29 µM in [7], 33.5 µM in experiment [8], 31.5 µM in experiment [9] and 35.8 µM in experiment [10].
For the compound `CN(C)c1ccc(/C=N/NC(=S)Nc2ccccc2)cc1`, the TGI in [1], in experiment [2], in experiment [3], in experiment [4], in [5] and in [6] was over 100 µM in each case. Besides, the TGI in [7], in [8], in [9] and in experiment [10] was over 100 µM throughout.
`Cc1ccc(NC2=C3CCCCC3OC2=O)cc1` (stereo not given): the GI50 in [1] is over 100 µM; in experiment [2], over 100 µM; in experiment [3], over 100 µM; in [4], 68.7 µM; in [5], 78.4 µM; in experiment [6], 49.7 µM. Further, the GI50 is over 100 µM in experiment [7], over 100 µM in [8], over 100 µM in [9] and 63.1 µM in [10]. Moreover, the TGI in [1], in [2], in experiment [3], in experiment [4], in [5] and in [6] was over 100 µM throughout. The TGI in experiment [7], in experiment [8], in [9] and in experiment [10] was over 100 µM throughout.
For the compound `C=C(C)C(=O)O[C@@H]1C[C@@]2(C)O[C@@H]2C[C@H](O)/C(C)=C/[C@H]2OC(=O)C(=C)[C@@H]21`, the TGI in [1], in experiment [2], in experiment [3], in experiment [4], in experiment [5] and in experiment [6] was over 100 µM throughout. The TGI in experiment [7], in experiment [8], in experiment [9] and in [10] was over 100 µM throughout.
Take `CC(=O)N[C@@H](Cc1ccc(OP(=O)(O)O)cc1)C(=O)N[C@H]1CCC(=O)N2CCC[C@@H](C(=O)Nc3cccc4ccccc34)N2C1=O`: the GI50 in experiment [1], in experiment [2], in experiment [3], in experiment [4], in experiment [5] and in [6] was over 25 µM each time. Besides, the GI50 in experiment [7], in [8], in [9] and in experiment [10] was over 25 µM in each case. The TGI in experiment [1], in [2], in [3], in [4], in experiment [5] and in experiment [6] was over 25 µM in each case. The TGI in [7], in [8], in [9] and in experiment [10] was over 25 µM throughout.
Consider `NC(=S)N/N=C1\c2cc(Cl)ccc2-c2c1cc(Cl)cc2[N+](=O)[O-]`, for which the GI50 in experiment [1] was 4.81 µM; in experiment [2], 4.33 µM; in [3], 3.27 µM; in [4], 4.66 µM; in experiment [5] it was 4.62 µM; in experiment [6], 3.21 µM. Further, the GI50 in experiment [7] was 6.16 µM; in experiment [8] it was 9.4 µM; in experiment [9] it was 20.5 µM; in experiment [10] it was 6.56 µM. Besides, the TGI in [1] was over 100 µM; in experiment [2], over 100 µM; in experiment [3], 20.7 µM; in [4], 40.8 µM; in experiment [5] it was over 100 µM; in experiment [6] it was over 100 µM. For the same compound, the TGI is 88.2 µM in [7], over 100 µM in [8], over 100 µM in [9] and over 100 µM in experiment [10].
Take `NC(=S)N/N=C\c1nccc2c(C(F)(F)F)cccc12`: the GI50 was 0.226 µM in experiment [1]; 0.315 µM in [2]; 0.26 µM in [3]; 0.294 µM in experiment [4]; 0.308 µM in experiment [5]; 0.351 µM in experiment [6]. The GI50 is 0.243 µM in experiment [7], 0.17 µM in experiment [8], 0.516 µM in experiment [9] and 0.29 µM in [10]. In addition, the TGI was found to be 5.58 µM in experiment [1]; 19.2 µM in [2]; 8.59 µM in [3]; 10.8 µM in [4]; 24 µM in experiment [5]; 15.2 µM in experiment [6]. Besides, the TGI in [7] amounted to 0.857 µM; in [8], 5.89 µM; in experiment [9], 32.1 µM; in experiment [10], 0.94 µM.
For the compound `C=CC(=O)Nc1cc(Nc2nccc(-c3cn(C)c4ccccc34)n2)c(OC)cc1N(C)CCN(C)C`, the GI50 is 0.272 µM and 0.479 µM in [1]; 1.61 µM and 1.42 µM in [2]; 2.18 µM and 2.14 µM in experiment [3]; 1.4 µM and 1.38 µM in experiment [4]; 2.04 µM and 1.57 µM in experiment [5]; 2.74 µM and 2.11 µM in experiment [6]. For the same compound, the GI50 is 1.7 µM and 1.63 µM in experiment [7]; 0.0501 µM and 0.0311 µM in experiment [8]; 0.0615 µM and 0.0824 µM in [9]; 1.71 µM and 1.8 µM in [10]. For the same compound, the TGI in [1] was 1.95 µM and 1.88 µM; in experiment [2], 3.69 µM and 3.27 µM; in experiment [3], 5.15 µM and 6.09 µM; in experiment [4], 2.93 µM and 3.04 µM; in experiment [5], 5.89 µM and 4.18 µM; in experiment [6], 12.1 µM and 5.55 µM. The TGI is 3.29 µM and 3.16 µM in [7]; 18.1 µM and > 10 µM in experiment [8]; 15.5 µM and 2.02 µM in experiment [9]; 3.27 µM and 3.37 µM in experiment [10].
For `COc1cc(-c2nn(-c3cccc(NC(=O)c4ccccc4)c3)cc2-c2ccncc2)ccc1Cl`, the GI50 in experiment [1] was 0.72 µM; in experiment [2] it was 0.579 µM; in experiment [3], 0.366 µM; in experiment [4], 0.313 µM; in experiment [5], 0.995 µM; in experiment [6], 0.333 µM. The GI50 in experiment [7] was 0.413 µM; in [8], 1.19 µM; in experiment [9] it was 4.12 µM; in experiment [10], 0.63 µM. For the same compound, the TGI in [1] was over 100 µM; in experiment [2] it was over 100 µM; in [3] it was over 33.2 µM; in [4] it was 13.9 µM; in experiment [5], over 100 µM; in experiment [6] it was over 33.5 µM. Moreover, the TGI in experiment [7] is 2.65 µM; in experiment [8], over 100 µM; in experiment [9], over 83.8 µM; in experiment [10], over 100 µM.
`O=C(NC1CCCCC1)NS(=O)(=O)c1ccc(N2N=C3c4ccccc4CC3C2c2ccc(Cl)cc2)cc1` (stereo not given): the GI50 in [1] is 13.4 µM; in experiment [2] it was 14.5 µM; in experiment [3], 4.45 µM; in experiment [4] it was 18.4 µM; in experiment [5], 19.6 µM; in experiment [6], 4.05 µM. Moreover, the GI50 in experiment [7] was 12.8 µM; in experiment [8], 24.5 µM; in [9], 4.5 µM; in experiment [10], 19.7 µM. Further, the TGI in [1] turned out to be 31.9 µM; in experiment [2], 43.7 µM; in [3], 30.6 µM; in [4], 42 µM; in experiment [5], 71.7 µM; in [6], 18.8 µM. The TGI was 31.9 µM in experiment [7], over 100 µM in experiment [8], 19.8 µM in experiment [9] and 53 µM in experiment [10].
Take `COc1cc2c(cc1OC)-c1cc(OC)c(OC)cc1C(CN(C)C)C2` (stereo not given): the GI50 in experiment [1], in [2], in experiment [3], in experiment [4], in [5] and in [6] was over 10 µM each time. The GI50 in [7], in experiment [8], in experiment [9] and in experiment [10] was over 10 µM each time. Moreover, the TGI in [1], in experiment [2], in experiment [3], in [4], in experiment [5] and in [6] was over 10 µM each time. The TGI in [7], in experiment [8], in [9] and in experiment [10] was over 10 µM throughout.
